In ChEMBL document CHEMBL1681651, “A broad spectrum anticancer nucleoside with selective toxicity against human colon cells in vitro” (2011):

Tests used:
Assay type in all cases: functional
[1] = Growth inhibition of human […] cells assessed as cell growth at 10 uM after 48 hrs by SRB assay; settings: read-out: Activity
A549 [2] = experiment: Growth inhibition of human A549 cells assessed as cell growth at 10 uM after 48 hrs by SRB assay; settings: A549, 48 h, read-out: Activity
EKVX = experiment: Growth inhibition of human EKVX cells assessed as cell growth at 10 uM after 48 hrs by SRB assay; settings: read-out: Activity
NCI-H322M = experiment: Growth inhibition of human NCI-H322M cells assessed as cell growth at 10 uM after 48 hrs by SRB assay; settings: read-out: Activity
A549 [3] = experiment: Growth inhibition of human A549 cells after 48 hrs by […] growth inhibition assay; settings: A549, 48 h
NCI-H460 = experiment: Growth inhibition of human NCI-H460 cells after 48 hrs by […] growth inhibition assay; settings: NCI-H460, 48 h
RXF 393 = experiment: Growth inhibition of human RXF393 cells after 48 hrs by […] growth inhibition assay; settings: RXF 393, 48 h
SN12C [4] = experiment: Growth inhibition of human SN12C cells after 48 hrs by […] growth inhibition assay
DU-145 [5] = experiment: Growth inhibition of human DU145 cells after 48 hrs by […] growth inhibition assay; settings: DU-145, 48 h
HCC 2998 = experiment: Growth inhibition of human HCC2998 cells assessed as cell growth at 0.1 uM after 48 hrs by SRB assay; settings: HCC 2998, 48 h, read-out: Activity
KM12 = experiment: Growth inhibition of human KM12 cells assessed as cell growth at 0.1 uM after 48 hrs by SRB assay; settings: KM12, 48 h, read-out: Activity
SF-539 = experiment: Growth inhibition of human SF539 cells assessed as cell growth at 0.1 uM after 48 hrs by SRB assay; settings: SF-539, 48 h, read-out: Activity
SK-MEL-2 = experiment: Growth inhibition of human SK-MEL-2 cells assessed as cell growth at 0.1 uM after 48 hrs by SRB assay; settings: SK-MEL-2, 48 h, read-out: Activity
OVCAR-4 = experiment: Growth inhibition of human OVCAR4 cells assessed as cell growth at 0.1 uM after 48 hrs by SRB assay; settings: OVCAR-4, 48 h, read-out: Activity
ACHN = experiment: Growth inhibition of human ACHN cells assessed as cell growth at 0.1 uM after 48 hrs by SRB assay; settings: read-out: Activity
UO-31 [6] = experiment: Growth inhibition of human UO31 cells assessed as cell growth at 0.1 uM after 48 hrs by SRB assay; settings: UO-31, 48 h, read-out: Activity
MDA-MB-435 [7] = experiment: Growth inhibition of human MDA-MB-435 cells assessed as cell growth at 0.1 uM after 48 hrs by SRB assay; settings: MDA-MB-435, 48 h, read-out: Activity
UACC-257 = experiment: Growth inhibition of human UACC257 cells assessed as cell growth at 10 uM after 48 hrs by SRB assay; settings: UACC-257, 48 h, read-out: Activity
CCRF-CEM = experiment: Growth inhibition of human CCRF-CEM cells assessed as cell growth at 100 uM after 48 hrs by SRB assay; settings: read-out: Activity
NCI-H23 = experiment: Growth inhibition of human NCI-H23 cells assessed as cell growth at 100 uM after 48 hrs by SRB assay; settings: NCI-H23, 48 h, read-out: Activity
IGROV-1 [8] = experiment: Growth inhibition of human IGROV1 cells assessed as cell growth at 100 uM after 48 hrs by SRB assay; settings: IGROV-1, 48 h, read-out: Activity
OVCAR-8 = experiment: Growth inhibition of human OVCAR8 cells assessed as cell growth at 100 uM after 48 hrs by SRB assay; settings: OVCAR-8, 48 h, read-out: Activity
SN12C [9] = experiment: Growth inhibition of human SN12C cells assessed as cell growth at 100 uM after 48 hrs by SRB assay; settings: read-out: Activity
NCI/ADR-RES = experiment: Growth inhibition of human NCI/ADR-RES cells assessed as cell growth at 100 uM after 48 hrs by SRB assay; settings: read-out: Activity
BT-549 [10] = experiment: Growth inhibition of human BT549 cells assessed as cell growth at 100 uM after 48 hrs by SRB assay; settings: BT-549, 48 h, read-out: Activity
HCT-15 = experiment: Growth inhibition of human HCT15 cells assessed as cell growth at 1 mM after 48 hrs by SRB assay; settings: HCT-15, 48 h, read-out: Activity
LOX IMVI = experiment: Growth inhibition of human LOXIMVI cells assessed as cell growth at 1 mM after 48 hrs by SRB assay; settings: read-out: Activity
IGROV-1 [11] = experiment: Growth inhibition of human IGROV1 cells assessed as cell growth at 1 mM after 48 hrs by SRB assay; settings: IGROV-1, 48 h, read-out: Activity
UO-31 [12] = experiment: Growth inhibition of human UO31 cells assessed as cell growth at 1 mM after 48 hrs by SRB assay; settings: UO-31, 48 h, read-out: Activity
DU-145 [13] = experiment: Growth inhibition of human DU145 cells assessed as cell growth at 1 mM after 48 hrs by SRB assay; settings: DU-145, 48 h, read-out: Activity
MDA-MB-435 [14] = experiment: Growth inhibition of human MDA-MB-435 cells assessed as cell growth at 1 mM after 48 hrs by SRB assay; settings: MDA-MB-435, 48 h, read-out: Activity
BT-549 [15] = experiment: Growth inhibition of human BT549 cells assessed as cell growth at 1 mM after 48 hrs by SRB assay; settings: BT-549, 48 h, read-out: Activity
HOP-92 = experiment: Growth inhibition of human HOP92 cells assessed as cell growth at 1 uM after 48 hrs by SRB assay; settings: HOP-92, 48 h, read-out: Activity
M14 = experiment: Growth inhibition of human M14 cells assessed as cell growth at 1 uM after 48 hrs by SRB assay; settings: M14, 48 h, read-out: Activity
PC-3 = experiment: Growth inhibition of human PC3 cells assessed as cell growth at 10 uM after 48 hrs by SRB assay; settings: PC-3, 48 h, read-out: Activity
[16] = read-out: LC50 (the source's name)
[17] = read-out: pLC50 (the source's name) (converted)

SMILES: CNC(=O)NC[C@H]1O[C@@H](n2cnc3c(NC(=O)Nc4ccccc4)ncnc32)[C@H](O[Si](C)(C)C(C)(C)C)[C@@H]1CC(=O)N(C)OC
- growth at 10 µM [1]: 69%
- growth at 10 µM (A549 [2]): 97%
- growth at 10 µM (EKVX): 95%
- growth at 10 µM (NCI-H322M): 102%
- GI50 (A549 [3]; read-out: GI50): 9.35 µM
- CC50 (A549 [3]; [16]): > 100 µM
- TGI (A549 [3]; read-out: TGI): > 100 µM
- GI50 (A549 [3]; read-out: pGI50 (converted)): 9.33 µM
- CC50 (A549 [3]; [17]): > 100 µM
- TGI (A549 [3]; read-out: pTGI (converted)): > 100 µM
- GI50 (NCI-H460; read-out: GI50): 7.49 µM
- CC50 (NCI-H460; [16]): > 100 µM
- TGI (NCI-H460; read-out: TGI): > 100 µM
- GI50 (NCI-H460; read-out: pGI50 (converted)): 7.41 µM
- CC50 (NCI-H460; [17]): > 100 µM
- TGI (NCI-H460; read-out: pTGI (converted)): > 100 µM
- GI50 (RXF 393; read-out: GI50): 9.74 µM
- CC50 (RXF 393; [16]): > 100 µM
- TGI (RXF 393; read-out: TGI): 38 µM
- GI50 (RXF 393; read-out: pGI50 (converted)): 9.77 µM
- CC50 (RXF 393; [17]): > 100 µM
- TGI (RXF 393; read-out: pTGI (converted)): 38 µM
- GI50 (SN12C [4]; read-out: GI50): 85.3 µM
- CC50 (SN12C [4]; [16]): > 100 µM
- TGI (SN12C [4]; read-out: TGI): > 100 µM
- GI50 (SN12C [4]; read-out: pGI50 (converted)): 85.1 µM
- CC50 (SN12C [4]; [17]): > 100 µM
- TGI (SN12C [4]; read-out: pTGI (converted)): > 100 µM
- GI50 (DU-145 [5]; read-out: GI50): 16.6 µM
- CC50 (DU-145 [5]; [16]): > 100 µM
- TGI (DU-145 [5]; read-out: TGI): > 100 µM
- GI50 (DU-145 [5]; read-out: pGI50 (converted)): 16.6 µM
- CC50 (DU-145 [5]; [17]): > 100 µM
- TGI (DU-145 [5]; read-out: pTGI (converted)): > 100 µM
- growth at 0.1 µM (HCC 2998): 102%
- growth at 0.1 µM (KM12): 101%
- growth at 0.1 µM (SF-539): 96%
- growth at 0.1 µM (SK-MEL-2): 85%
- growth at 0.1 µM (OVCAR-4): 100%
- growth at 0.1 µM (ACHN): 107%
- growth at 0.1 µM (UO-31 [6]): 89%
- growth at 0.1 µM (MDA-MB-435 [7]): 100%
- growth at 10 µM (UACC-257): 102%
- growth at 100 µM (CCRF-CEM): 39%
- growth at 100 µM (NCI-H23): 71%
- growth at 100 µM (IGROV-1 [8]): 26%
- growth at 100 µM (OVCAR-8): 48%
- growth at 100 µM (SN12C [9]): 66%
- growth at 100 µM (NCI/ADR-RES): 76%
- growth at 100 µM (BT-549 [10]): 70%
- growth at 1000 µM (HCT-15): 37%
- growth at 1000 µM (LOX IMVI): 35%
- growth at 1000 µM (IGROV-1 [11]): -6%
- growth at 1000 µM (UO-31 [12]): 32%
- growth at 1000 µM (DU-145 [13]): 16%
- growth at 1000 µM (MDA-MB-435 [14]): 36%
- growth at 1000 µM (BT-549 [15]): 26%
- growth at 1 µM (HOP-92): 93%
- growth at 1 µM (M14): 98%

SMILES: CCOC(=O)C[C@H]1[C@@H](O[Si](C)(C)C(C)(C)C)[C@H](n2cnc3c(NC(=O)Nc4ccccc4)ncnc32)O[C@@H]1CNC(=O)NC
- growth at 10 µM [1]: 53%
- growth at 10 µM (A549 [2]): 94%
- growth at 10 µM (EKVX): 91%
- growth at 10 µM (NCI-H322M): 95%
- GI50 (A549 [3]; read-out: GI50): 4.18 µM
- CC50 (A549 [3]; [16]): 79.1 µM
- TGI (A549 [3]; read-out: TGI): 19.2 µM
- GI50 (A549 [3]; read-out: pGI50 (converted)): 4.17 µM
- CC50 (A549 [3]; [17]): 79.4 µM
- TGI (A549 [3]; read-out: pTGI (converted)): 19.1 µM
- GI50 (NCI-H460; read-out: GI50): 5.54 µM
- CC50 (NCI-H460; [16]): > 100 µM
- TGI (NCI-H460; read-out: TGI): 25 µM
- GI50 (NCI-H460; read-out: pGI50 (converted)): 5.5 µM
- CC50 (NCI-H460; [17]): > 100 µM
- TGI (NCI-H460; read-out: pTGI (converted)): 25.1 µM
- GI50 (RXF 393; read-out: GI50): 2.01 µM
- CC50 (RXF 393; [16]): 19.5 µM
- TGI (RXF 393; read-out: TGI): 4.63 µM
- GI50 (RXF 393; read-out: pGI50 (converted)): 2 µM
- CC50 (RXF 393; [17]): 19.5 µM
- TGI (RXF 393; read-out: pTGI (converted)): 4.68 µM
- GI50 (SN12C [4]; read-out: GI50): 9.1 µM
- CC50 (SN12C [4]; [16]): > 100 µM
- TGI (SN12C [4]; read-out: TGI): > 100 µM
- GI50 (SN12C [4]; read-out: pGI50 (converted)): 9.12 µM
- CC50 (SN12C [4]; [17]): > 100 µM
- TGI (SN12C [4]; read-out: pTGI (converted)): > 100 µM
- CC50 (DU-145 [5]; [16]): 12.5 µM
- GI50 (DU-145 [5]; read-out: pGI50 (converted)): 5.01 µM
- CC50 (DU-145 [5]; [17]): 77.6 µM
- TGI (DU-145 [5]; read-out: pTGI (converted)): 19.5 µM
- growth at 0.1 µM (HCC 2998): 101%
- growth at 0.1 µM (KM12): 107%
- growth at 0.1 µM (SF-539): 97%
- growth at 0.1 µM (SK-MEL-2): 102%
- growth at 0.1 µM (OVCAR-4): 98%
- growth at 0.1 µM (ACHN): 107%
- growth at 0.1 µM (UO-31 [6]): 87%
- growth at 0.1 µM (MDA-MB-435 [7]): 95%
- growth at 10 µM (UACC-257): 99%
- growth at 10 µM (PC-3): 103%
- growth at 100 µM (CCRF-CEM): 41%
- growth at 100 µM (NCI-H23): 65%
- growth at 100 µM (IGROV-1 [8]): 20%
- growth at 100 µM (OVCAR-8): 29%
- growth at 100 µM (SN12C [9]): 48%
- growth at 100 µM (NCI/ADR-RES): 80%
- growth at 100 µM (BT-549 [10]): 67%
- growth at 1000 µM (HCT-15): 43%
- growth at 1000 µM (LOX IMVI): 4%
- growth at 1000 µM (IGROV-1 [11]): -58%
- growth at 1000 µM (UO-31 [12]): -69%
- growth at 1000 µM (DU-145 [13]): -59%
- growth at 1000 µM (MDA-MB-435 [14]): 8%
- growth at 1000 µM (BT-549 [15]): 51%
- growth at 1 µM (HOP-92): -1%
- growth at 1 µM (M14): 82%
